The target of the assay is T1, Rat Hepatic V1 Receptors (Rattus norvegicus, UniProt P30560).
T1 construct: Rat liver plasma membranes expressing the vasopressin V1 receptor subtypes; from tissue; host or cells: rat liver plasma membranes (sucrose density gradient)
Description: Binding Assay to Rat Hepatic V1 Receptors. The settings on record: rat hepatic V1 (no asterisk). As to the method:
Binding Assay to Rat Hepatic V1 Receptors
Rat liver plasma membranes expressing the vasopressin V1 receptor subtypes are isolated by sucrose density gradient according to the method described by Lesko et al., (1973). These membranes are quickly suspended in 50.0 mM Tris.HCl buffer, pH 7.4, containing 0.2% bovine serum albumin (BSA) and 0.1 mM phenylmethylsulfonylfluoride (PMSF) and kept frozen at -70° C. until used in subsequent binding experiments. […]
For test compounds, these are solubilized in 50% dimethylsulfoxide (DMSO) and added in 20.0 μl volume to a final incubation volume of 200 μl. […] The radioactivity trapped on the filter disk by the ligand-receptor complex is assessed by liquid scintillation counting in a Packard LS Counter, with an efficiency of 65% for tritium. The data are analyzed for IC50 values by the LUNDON-2 program for competition (LUNDON SOFTWARE, Ohio).

T1 sequence (P30560 whole entry): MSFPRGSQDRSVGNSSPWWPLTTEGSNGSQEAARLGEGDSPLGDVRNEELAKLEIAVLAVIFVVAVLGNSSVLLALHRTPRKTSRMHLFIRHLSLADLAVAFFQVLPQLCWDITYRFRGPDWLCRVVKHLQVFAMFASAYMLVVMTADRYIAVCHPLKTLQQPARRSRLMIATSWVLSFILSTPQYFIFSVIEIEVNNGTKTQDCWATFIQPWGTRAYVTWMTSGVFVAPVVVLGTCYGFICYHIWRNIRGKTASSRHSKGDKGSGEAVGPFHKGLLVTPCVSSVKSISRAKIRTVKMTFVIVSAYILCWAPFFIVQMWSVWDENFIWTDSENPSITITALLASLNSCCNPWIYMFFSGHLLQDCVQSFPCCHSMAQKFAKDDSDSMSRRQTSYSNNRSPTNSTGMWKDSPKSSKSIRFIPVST

The IC50 is the concentration that inhibits the measured activity by half. A lower IC50 goes with higher potency. Regarding `O=C(c1ccc(-c2ccccc2C(F)(F)F)cc1)N1Cc2cccn2Cc2ccccc21` [Example 8], the IC50 is 670 nM.

`O=C(c1ccc(-c2ccccn2)cc1)N1Cc2cccn2Cc2ccccc21` [Example 9, 10,11-Dihydro-10-[4-(2-pyridinyl)benzoyl]-5H-pyrrolo[2,1-c][1,4]benzodiazepine] yielded an IC50 of 400 nM.

These data come from patent US5521173A, “Tricyclic benzazepine vasopressin antagonists” (American Home Products Corporation, priority 1995, dated 1996).
